# From patent US6492329B1, “Cytokine and hemopoietic factor endogenous production enhancer and methods of use thereof” (Novelos Therapeutics, Inc., priority 1995, dated 2002)
# “And” between values parts separate entries of the source, which are not always exact repeats. Equal values may be shown once.
# Assays:
# [1] = tested on: CBA mice with cyclophosphamide-induced hemo- and immunodepression; assay: Cyclophosphamide-induced hemo- and immunodepression in mice; assay type: in vivo, mouse; conditions: 5 mg/kg IP daily for 5 days
# Method: The study was designed to evaluate the effect of a 5-day long administration of the test articles on the capability of the CP-treated murine splenocytes to produce IL-2 and GM-CSF in vitro. In addition, the number of blood leukocytes and lymphocytes and the bone marrow cellularity (number of karyocytes) were determined at 8 days after CP administration. Some animals receiving CP were then challenged with sheep red blood cells (SRBC), and the humoral immune response to the antigen was evaluated.
# Male CBA mice (18 to 20 g body weight) were given a single intraperitoneal injection of CP in a dose of 50 mg/kg. […] Group description is represented below.
# Injections were performed during 5 days: once a day, daily.
# Twenty four hours after the completion of 5 day treatment course (on the 8th day after the CP injection), mice were euthanized and splenocyte cultures were aseptically prepared for assessment of spontaneous production of IL-2 and GM-CSF by the spleen lymphocytes in vitro.
# Simultaneously, blood and marrow samples were collected for blood leukocyte and lymphocyte, and marrow nucleated cell counted,
# Serum samples from immunized animals were tested on level of SRBC agglutinins (the day 8 after the CP injection, and the day 7 after the immunization).
# [2] = tested on: CBA mice with radiation-induced hemo- and immunodepression; assay: Radiation-induced hemo- and immunodepression in mice; assay type: in vivo, mouse; conditions: mice irradiated 1 Gy, 5 mg/kg IP daily for 7 days, day 8 post-exposure
# Method: The study was designed to evaluate efficacy of 7-day daily administration of the test articles (with the dosing started 2 hours post-exposure) on the capability of the splenocytes from mice exposed to radiation to produce IL-2 and GM-CSF in vitro. In addition, the number of blood leukocytes and lymphocytes and the spleen and bone marrow cellularity (number of karyocytes), as well as splenic and medullary colony-stimulating capacity, were determined at 8 days post-exposure.
# Male CBA mice (18 to 20 g body weight) were irradiated with single dose of 180 kV X-rays filtered with 0.5 mm Cu (at 15 mA, distance—70 cm, duration 2 min. and 28 sec.).
# The total absorbed dose comprised approximately 1 Gy. Five groups of animals (with no less than 12 mice in each) were formed. Group description is represented below.
# Injections were performed during 7 days: once a day, daily.
# Twenty four hours after the completion of 7 day treatment course (on the 8th day after the irradiation). mice were euthanized and splenocyte cultures were aseptically prepared for assessment of spontaneous production of IL-2 and GM-CSF by the spleen lymphocytes in vitro.
# Simultaneously, blood, spleen and marrow samples were collected for blood leukocyte and lymphocyte, and spleen and marrow nucleated cell counting.
# Additionally, hemopoietic colony formation ability of spleen and bone marrow cells was, assessed by the method of direct count of colony forming units (CFU) in the spleens of irradiated CBA mice receiving intravenously spleen or bone marrow cells obtained from animals of control or test groups.
# [3] = cyclophosphamide-treated mice, day 8 after CP
structure (smiles),measurement,setting,value
"N[C@@H](CCC(=O)N[C@@H](CS)C(=O)NCC(=O)O)C(=O)O [GSH, γ-glutamyl-cysteinyl-glycine]",SRBC agglutinin titer,"[1]; cyclophosphamide-treated mice immunized with SRBC, day 7 after immunization",1.94 log2 and 1.62 log2 and 2.09 log2
same,Blood leukocyte count,[1]; [3],5.2 ± 10^9/L and 6.3 ± 10^9/L and 6.2 ± 10^9/L
same,Blood lymphocyte count,[1]; [3],4.3 ± 10^9/L and 4.6 ± 10^9/L and 5.31 ± 10^9/L
same,Bone marrow nucleated cell number,[1]; [3],32.2 ± 10^6/L and 36.4 ± 10^6/L
same,IL-2 production by splenocytes,[1]; [3],17.2 U/mL and 15.3 U/mL and 20.3 U/mL
same,Blood leukocyte count,[2],4.8 ± 10^9/L and 5.7 ± 10^9/L and 4.95 ± 10^9/L
same,Blood lymphocyte count,[2],3.4 ± 10^9/L and 4.6 ± 10^9/L and 4.0 ± 10^9/L
same,Bone marrow CFU,[2],22.1 and 25.6 and 25.3
same,Bone marrow nucleated cell number,[2],17.2 ± 10^6/L and 24.7 ± 10^6/L and 22.5 ± 10^6/L
same,IL-2 production by splenocytes,[2],8.6 U/mL and 9.3 U/mL and 9.9 U/mL
same,Spleen CFU,[2],56.3 and 66.3 and 59.8
same,Spleen nucleated cell number,[2],4.3 ± 10^7/L and 6.93 ± 10^7/L and 5.5 ± 10^7/L
